Our source for the IC50 values is patent US7511065B2, “Mixed lineage kinase modulators” (Eli Lilly and Company, priority 2002, dated 2009).

T1 sequence (Q9NYL2 1-455 isoform Q9NYL2-2): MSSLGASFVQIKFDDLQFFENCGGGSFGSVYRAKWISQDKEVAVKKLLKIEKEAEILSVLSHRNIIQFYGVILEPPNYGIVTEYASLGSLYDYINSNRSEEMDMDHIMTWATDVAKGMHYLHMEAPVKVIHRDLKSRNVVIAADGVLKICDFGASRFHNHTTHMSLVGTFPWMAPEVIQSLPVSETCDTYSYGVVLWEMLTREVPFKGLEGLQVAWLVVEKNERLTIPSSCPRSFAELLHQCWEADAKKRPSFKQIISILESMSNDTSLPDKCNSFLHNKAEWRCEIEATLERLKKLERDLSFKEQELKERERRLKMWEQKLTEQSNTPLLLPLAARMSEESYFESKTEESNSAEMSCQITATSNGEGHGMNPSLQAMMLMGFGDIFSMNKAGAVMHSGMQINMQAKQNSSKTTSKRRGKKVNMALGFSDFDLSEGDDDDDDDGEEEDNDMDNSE

This experiment addresses T1, MLK-7 (Homo sapiens, UniProt Q9NYL2).
T1 construct: GST; His tag; made in house; host or cells: Sf9 insect cells (baculovirus, pVL1392)
Nature of the experiment: In vitro assay of purified MLK-7 kinase activity (33P transfer from ATP to myelin basic protein). Type of experiment: biochemical. The conditions noted are these: recombinant GST-tagged MLK-7 at 1 nm, 30 uM ATP, 5 uM MBP substrate, 2 hours room temperature; read-out: MLK7 IC50. The text has this: In Vitro Assay of Purified Mixed Lineage Kinase 7 (MLK-7) Activity:
Briefly, recombinant glutathione-s-transferase (GST) tagged MLK-7 is expressed in Sf9 cells using a recombinant baculovirus created using baculovirus transfer vector pVL1392 modified to contain a GST and histidine tag. The recombinant protein is purified over a glutathione column and subsequently used for in vitro kinase assays with myelin basic protein (MBP) as the substrate for phosphorylation. The in vitro kinase reaction is run with recombinant MLK-7 at 1 nm and various concentrations of test compound in a reaction mixture containing 2 mM DTT, 30 uM ATP, 5 mM MgCl2, 5 uM MBP, 4% DMSO, 5 uCi 33P in 44 mM HEPES, (pH 7.4). The reaction is carried out for 2 hours at room temperature and then stopped by the addition of phosphoric acid to 5.5%. The phosphorylated MBP is collected on a filter and radioactivity associated with the membrane measured using a scintillation counter. Inhibitors are identified by the ability to reduce the transfer of radioactive phosphate from ATP to MBP compared to controls run without test compound.
IC50 values, defined as the concentration of test compound required to decrease the transfer of radioactive phosphate from ATP to MBP by 50%, are then determined. Ki values (which refers to the dissociation constant of an enzyme-antagonist complex and serves as an index of ligand binding) for each respective test compound can also be calculated by application of the Cheng-Prusoff equation as described in Cheng et al., Relationship Between The Inhibition Constant (Ki) and The Concentration of Inhibitor Which Causes 50% Inhibition (IC50) of an Enzymatic Reaction, Biochem. Pharmacol., 22: […]; (1973).
Representative compounds of the present invention have an IC50 in the MLK-7 kinase assay of ≦10,000 nM Table I (see infra.) provides IC50 data from the afore mentioned MLK-7 kinase assay for a representative sample of the exemplified compounds of the present invention.
One may read the IC50 as the concentration that inhibits the measured activity by half. As to `Cc1cccc(-c2nn3c(c2-c2ccnc4cc(-c5ccccc5)ccc24)CCC3)n1` [Example 61, 7-Phenyl-4-[2-(6-methyl-pyridin-2-yl)-5,6-dihydro-4H-pyrrolo[1,2-b]pyrazol-3-yl]-quinoline Trifluoroacetic Acid], the half-inhibitory concentration (IC50) was no more than 100 nM.
As to `Cc1cccc(-c2nn3c(c2-c2ccnc4cc(-c5cccs5)ccc24)CCC3)n1` [Example 62, 4-[2-(6-Methyl-pyridin-2-yl)-5,6-dihydro-4H-pyrrolo[1,2-b]pyrazol-3-yl]-7-thiophen-2-yl-quinoline Trifluoroacetic Acid], the IC50 was no more than 100 nM.
`Cc1cccc(-c2nn3c(c2-c2ccnc4cc(-c5cccc([N+](=O)[O-])c5)ccc24)CCC3)n1` [Example 63, 4-[2-(6-Methyl-pyridin-2-yl)-5,6-dihydro-4H-pyrrolo[1,2-b]pyrazol-3-yl]-7-(3-nitro-phenyl)quinoline]: the IC50 was no more than 100 nM.
To `Cc1cccc(-c2nn3c(c2-c2ccnc4cc(-c5ccc(Cl)cc5)ccc24)CCC3)n1` [Example 64, 7-(4-Chloro-phenyl)-4-[2-(6-methyl-pyridin-2-yl)-5,6-dihydro-4H-pyrrolo[1,2-b]pyrazol-3-yl]-quinoline] belongs no more than 1000 nM.
Then `c1ccc(-c2nn3c(c2-c2ccnc4cc(-c5ccco5)ccc24)CCC3)nc1` [Example 65, 7-Furan-2-yl-4-(2-Pyridin-2-yl-5,6-dihydro-4H-pyrrolo[1,2-b]pyrazol-3-yl)quinoline Trifluoroacetic Acid], with no more than 100 nM; and `c1ccc(-c2nn3c(c2-c2ccnc4cc(-c5nccs5)ccc24)CCC3)nc1` [Example 66, 4-(2-Pyridin-2-yl-5,6-dihydro-4H-pyrrolo[1,2-b]pyrazol-3-yl)-7-thiazol-2-yl-quinoline Trifluoroacetic Acid], with no more than 100 nM; and `c1ccc(-c2nn3c(c2-c2ccnc4cc(-c5cnccn5)ccc24)CCC3)nc1` [Example 67, 7-Pyrazin-2-yl-4-(2-Pyridin-2-yl-5,6-dihydro-4H-pyrrolo[1,2-b]pyrazol-3-yl)quinoline Ditrifluoroacetic Acid], with no more than 1000 nM.
Then `c1ccc(-c2ccc3c(-c4c(-c5ccccn5)nn5c4CCC5)ccnc3c2)nc1` [Example 68, 7-Pyridin-2-yl-4-(2-Pyridin-2-yl-5,6-dihydro-4H-pyrrolo[1,2-b]pyrazol-3-yl)quinoline Ditrifluoroacetic Acid], with no more than 100 nM; and `c1ccc(-c2nn3c(c2-c2ccnc4cc(-c5ccc[nH]5)ccc24)CCC3)nc1` [Example 69, 4-(2-pyridin-2-yl-5,6-dihydro-4H-pyrrolo[1,2-b]pyrazol-3-yl)-7-(1H-pyrrol-2-yl)quinoline Ditrifluoroacetic Acid], with no more than 100 nM; and `c1ccc(-c2nn3c(c2-c2ccnc4cc(-c5cc6ccccc6[nH]5)ccc24)CCC3)nc1` [Example 70, 7-(1H-Indol-2-yl)-4-(2-pyridin-2-yl-5,6-dihydro-4H-pyrrolo[1,2-b]pyrazol-3-yl)quinoline Ditrifluoroacetic Acid], with no more than 100 nM.
Regarding `c1ccc(-c2nn3c(c2-c2ccnc4cc(-c5cc[nH]c5)ccc24)CCC3)nc1` [Example 71, 4-(2-pyridin-2-yl-5,6-dihydro-4H-pyrrolo[1,2-b]pyrazol-3-yl)-7-(1H-pyrrol-3-yl)quinoline Ditrifluoroacetic Acid], the IC50 was no more than 100 nM.
To `c1ccc(-c2nn3c(c2-c2ccnc4cc(C5CCCCC5)ccc24)CCC3)nc1` [Example 72, 7-Cyclohexyl-4-(2-pyridin-2-yl-5,6-dihydro-4H-pyrrolo[1,2-b]pyrazol-3-yl)quinoline Trifluoroacetic Acid] belongs no more than 10000 nM.
Then `OCCOc1ccc(-c2ccc3c(-c4c(-c5ccccn5)nn5c4CCC5)ccnc3c2)cc1` [Example 73, 2-{4-[4-(2-Pyridin-2-yl-5,6-dihydro-4H-pyrrolo[1,2-b]pyrazol-3-yl)quinolin-yl]phenoxy}ethanol Trifluoroacetic Acid], with no more than 100 nM; and `O=C(O)Cc1ccc(-c2ccc3c(-c4c(-c5ccccn5)nn5c4CCC5)ccnc3c2)cc1` [Example 74, {4-[4-(2-pyridin-2-yl-5,6-dihydro-4H-pyrrolo[1,2-b]pyrazol-3-yl)quinolin-7-yl]phenyl}acetic Acid Trifluoroacetic Acid], with no more than 100 nM; and `CS(=O)(=O)c1ccc(-c2ccc3c(-c4c(-c5ccccn5)nn5c4CCC5)ccnc3c2)cc1` [Example 75, 7-(4-Methanesulfonylphenyl)-4-(2-pyridin-2-yl-5,6-dihydro-4H-pyrrolo[1,2-b]pyrazol-3-yl)quinoline Trifluoroacetic Acid], with no more than 100 nM.
Take `NCCc1ccc(-c2ccc3c(-c4c(-c5ccccn5)nn5c4CCC5)ccnc3c2)cc1` [Example 76, 2-{4-[4-(2-pyridin-2-yl-5,6-dihydro-4H-pyrrolo[1,2-b]pyrazol-3-yl)quinolin-7-yl]phenyl}ethylamine Ditrifluoroacetic Acid]: the IC50 was no more than 100 nM.
To `Cc1ccc(-c2ccc3c(-c4c(-c5ccccn5)nn5c4CCC5)ccnc3c2)cc1` [Example 77, 4-(2-pyridin-2-yl-5,6-dihydro-4H-pyrrolo[1,2-b]pyrazol-3-yl)-7-p-tolylquinoline Trifluoroacetic Acid] belongs no more than 100 nM; to `Nc1ccc(-c2ccc3c(-c4c(-c5ccccn5)nn5c4CCC5)ccnc3c2)cc1F` [Example 78, 2-Fluoro-4-[4-(2-pyridin-2-yl-5,6-dihydro-4H-pyrrolo[1,2-b]pyrazol-3-yl)quinolin-7-yl]phenylamine Ditrifluoroacetic Acid], no more than 100 nM.
To `O=C(O)c1cc(C(=O)O)cc(-c2ccc3c(-c4c(-c5ccccn5)nn5c4CCC5)ccnc3c2)c1` [Example 79, 5-[4-(2-Pyridin-2-yl-5,6-dihydro-4H-pyrrolo[1,2-b]pyrazol-3-yl)quinolin-7-yl]isophthalic Acid Trifluoroacetic Acid] belongs no more than 10000 nM; to `COC(=O)c1cc(C(=O)OC)cc(-c2ccc3c(-c4c(-c5ccccn5)nn5c4CCC5)ccnc3c2)c1` [Example 80, 5-[4-(2-Pyridin-2-yl-5,6-dihydro-4H-pyrrolo[1,2-b]pyrazol-3-yl)quinolin-7-yl]isophthalic Acid Dimethyl Ester Trifluoroacetic Acid], no more than 10000 nM; to `O=S1(=O)Cc2ccc(-c3ccc4c(-c5c(-c6ccccn6)nn6c5CCC6)ccnc4c3)cc2C1` [Example 81], no more than 100 nM.
To `O=C(O)c1cccc(-c2ccc3c(-c4c(-c5ccccn5)nn5c4CCC5)ccnc3c2)n1` [Example 82, 6-[4-(2-Pyridin-2-yl-5,6-dihydro-4H-pyrrolo[1,2-b]pyrazol-3-yl)quinolin-7-yl]pyridine-2-carboxylic Acid Tris-trifluoroacetic Acid] belongs no more than 100 nM.
As to `Fc1ccc(-c2ccc3c(-c4c(-c5ccccn5)nn5c4CCC5)ccnc3c2)nc1` [Example 83, 7-(5-Fluoropyridin-2-yl)-4-(2-Pyridin-2-yl-5,6-dihydro-4H-pyrrolo[1,2-b]pyrazol-3-yl)quinoline Ditrifluoroacetic Acid], the IC50 was no more than 10000 nM.
Then `COc1ccc(-c2ccc3c(-c4c(-c5ccccn5)nn5c4CCC5)ccnc3c2)nn1.O=C(O)C(F)F` [Example 84, 7-(6-Methoxypyridazin-3-yl)-4-(2-Pyridin-2-yl-5,6-dihydro-4H-pyrrolo[1,2-b]pyrazol-3-yl)quinoline Difluoroacetic Acid], with no more than 100 nM; and `O=C(O)C(F)F.c1ccc(-c2nn3c(c2-c2ccnc4cc(-c5ncccn5)ccc24)CCC3)nc1` [Example 85, 4-(2-Pyridin-2-yl-5,6-dihydro-4H-pyrrolo[1,2-b]pyrazol-3-yl)-7-pyrimidin-2-yl-quinoline Difluoroacetic Acid], with no more than 1000 nM; and `NC(=O)CCCc1ccc(-c2ccc3c(-c4c(-c5ccccn5)nn5c4CCC5)ccnc3c2)cc1` [Example 86, 4-{4-[4-(2-Pyridin-2-yl-5,6-dihydro-4H-pyrrolo[1,2-b]pyrazol-3-yl)quinolin-7-yl]phenyl}butyramide Trifluoroacetic Acid], with no more than 100 nM.
Take `O=C(O)C(F)F.c1ccc(-c2nn3c(c2-c2ccnc4cc(-c5nc6ccccc6[nH]5)ccc24)CCC3)nc1` [Example 87, 7-(1H-Benzoimdazol-2-yl)-4-(2-pyridin-2-yl-5,6-dihydro-4H-pyrrolo[1,2-b]pyrazol-3-yl)quinoline Difluoroacetic Acid]: the IC50 is no more than 100 nM.
Then `O=C(O)C(F)F.c1ccc(-c2nn3c(c2-c2ccnc4cc(-c5cncnc5)ccc24)CCC3)nc1` [Example 88, 4-(2-pyridin-2-yl-5,6-dihydro-4H-pyrrolo[1,2-b]pyrazol-3-yl)-7-pyrimidin-5-yl-quinoline Difluoroacetic Acid], with no more than 1000 nM.
